Experimental data reported in patent US20250161287A1, “METHODS, COMPOSITIONS, AND COMBINATIONS FOR PREVENTING OR TREATING CANCER RECURRENCE” (VUJA DE SCIENCES, INC., priority 2022, published 2025).
“And” between values parts separate entries of the source, which are not always exact repeats. Equal entries are not always repeated. “Also recorded” adds a separate entry of the source. Where two headings read alike, the source gives them in different places.

What was measured:
MG63.3 OS cell line [1] = assay: in vitro 3D BME assay with MG63.3 OS cell line; assay type: cell-based, human; conditions: for activity on 3D BME compared with 2D: MG63.3, 3D BME vs 2D MTT 72 h; for 3D activity and selectivity for ME in a screen of 10 HDAC inhibitors: selectivity = ratio of 3D to 2D % inhibition at the same dose, Class I, Class II, pan-HDAC; for earlier (2 days on, 4 days off) vs later (2 days off, 4 days on) treatment / 3D growth inhibition and selectivity for ME at selected dose: MG63.3 3D BME; for 3D growth inhibition and selectivity for ME at selected dose: givinostat 400 nM, quisinostat 10 nM
Excerpt: 3D basement membrane extract (BME) assay was developed at the NCI Barkan (D. Barkan et al. 2008; Dalit Barkan and Green 2011; Hen and Barkan 2020). BME is purified from Engelbreth-Holm-Swarm (EHS) tumor, primarily made up of laminin, collagen IV, entactin, and heparin sulfate proteoglycans (Cultrex Reduced Growth Factor Basement Membrane Extract, PathClear n.d.), which allows it to more accurately reflect the 3D extracellular environment in the body.
Initially >150 selected therapeutic agents were tested on BME based on the likelihood for either a positive effect or a […] negative effect (as negative controls). […] These therapeutic agents were also tested in dose response (as broad as 1 pM-100 μM) for 2D cytotoxicity (MTT) and the IC50 was calculated. Where required, the hits from the initial screen were also further characterized at additional doses <100 nM in order to further determine the relative selectivity compared to the 2D IC50.
The influence of drug exposure on the metastatic phenotype was assessed in an in vitro assay of ME and escape from dormancy using a 3D BME assay as previously reported, which was adapted for use with OS cells.
Cultrex® PathClear, Reduced Growth Factor Basement Membrane Extract (BME—Bio-Techne, Minneapolis, MN) was added ([…]) to a 96-well plate and allowed to gel by incubating at 37° C. for ≥30 min. Cells were harvested, washed with DMEM (no glucose, no FBS, Gibco, Grand Island, NY) and centrifuged at 1500 g×5 mins. The media was aspirated and the remaining cell pellet flicked for about 10 s to ensure disaggregation.
Cells were diluted in assay media containing 2% BME, resuspended vigorously and 150 μL of the cell suspension was added on top of the gelled 3D BME layer. […] Cell numbers were determined in control vehicle (cells in media+0.1% DMSO), or treated wells and were measured on the indicated days by addition of 20 μL/well of MTS reagent (Cell Titer 96 Aqueous One, Promega, Madison, WI), followed by incubation at 37° C. for 2 h and absorbance measurements at 490 nm via plate reader (Molecular Devices, San Jose CA).
All conditions were conducted in quadruplicate and each experiment was carried out at least 3 separate times. All comparisons were made between treatment and vehicle control at concordant time points. Statistical analyses and non-linear regressions were derived using GraphPad Prism statistical software.

MG63.3 OS cell line [2] = assay: 2D growth / cytotoxicity by MTT, MG63.3; conditions: for doses exhibiting cytotoxicity on 2D growth: 72 h
Protocol: The number of viable cells present in 2D culture was determined by MTT as previously reported. Briefly, cells were plated in 96-well plates at 2,000 cells/well and incubated at 37° C. for 24 h. After 24 h, the media was replaced with fresh media containing drugs at the desired concentrations (10 pM-10 μM) and incubated at 37° C. for 72 h. After 72 h, MTT reagent (20 L/well of a 5 mg/mL stock solution in sterile water; Sigma, St. Louis, MO) was added to each well and the plate was incubated at 37° C. for 2 h. DMSO ([…]) was then added to each well to solubilize the formazan crystals.
The resulting absorbance was measured at 490 nm via plate reader (Molecular Devices, San Jose, CA). DMSO (0.1%) was used as vehicle control, while 20 μM rapamycin was used as a positive cell-kill control. The experimental conditions were conducted in triplicate and each experiment was repeated three times. Regression lines and IC50's were calculated using a four-parameter variable slope nonlinear fit in GraphPad Prism.

[3] = MG63.3 on 3D BME, vs vehicle control, replicates=4, read-out: lowest dose leading to appreciable inhibition of 3D growth
[4] = Homo sapiens, MG-63.3, MG63.3 on 3D BME, vs vehicle control, replicates=4, read-out: lowest dose leading to appreciable inhibition of 3D growth
[5] = domatinostat 100-200 nM, MG63.3
[6] = MG63.3 on 3D BME, vs vehicle control, replicates=4

Row | Compound | activity on 3D BME compared with 2D (MG63.3 OS cell line [1]) | doses exhibiting cytotoxicity on 2D growth (MG63.3 OS cell line [2]; human) | minimal effective concentration (MG63.3 OS cell line [1]; [4]) [µM] | other results
1 | O=C(/C=C/c1cccnc1)NCCCCC1CCN(C(=O)c2ccccc2)CC1 [(E)-daporinad] | much stronger activity on 3D BME at significantly lower doses | > 0.1 nM |  | minimal effective concentration (MG63.3 OS cell line [1]; [3]): 0.0001 µM
2 | COc1c(C)cnc(Cn2cnc3c(Cl)nc(N)nc32)c1C [BIIB021] | much stronger activity on 3D BME at significantly lower doses | > 10 nM | 0.008 | 
3 | O=C(NOC[C@H](O)CO)c1ccc(F)c(F)c1Nc1ccc(I)cc1F [PD0325901] | much stronger activity on 3D BME at similar doses; also recorded: more active in 3D than in 2D | ≥ 100 nM |  | minimal effective concentration (MG63.3 OS cell line [1]; Homo sapiens, MG-63.3, read-out: lowest dose leading to appreciable inhibition of 3D growth): 0.001 µM; growth inhibition in the 3D BME assay (MG63.3 OS cell line [1]; PD0325901 1-128 nM, MG63.3): 50-75%; inhibition in 2D at this dose (MG63.3 OS cell line [2]; PD0325901 1-128 nM, MG63.3): no statistically significant inhibition
4 | COc1cc(Nc2ncc3c(n2)-c2ccc(Cl)cc2C(c2c(F)cccc2OC)=NC3)ccc1C(=O)O [alisertib] | much stronger activity on 3D BME at significantly lower doses | > 25 nM | 0.0125 | 
5 | CO[C@H]1/C=C\C=C(/C)C(=O)NC2=CC(=O)C(NCCN(C)C)=C(C[C@@H](C)C[C@H](OC)[C@H](O)[C@@H](C)/C=C(\C)[C@@H]1OC(N)=O)C2=O [alvespimycin] | much stronger activity on 3D BME at significantly lower doses |  | 0.0125 | doses exhibiting cytotoxicity on 2D growth (MG63.3 OS cell line [2]; MG63.3, MTT, replicates=3): > 25 nM
6 | O=C(/C=C/c1cccc(S(=O)(=O)Nc2ccccc2)c1)NO [belinostat] |  | ≥ 80 nM | 0.2 | 3D activity and selectivity for ME in a screen of 10 HDAC inhibitors (MG63.3 OS cell line [1]; MG63.3): 3D activity and selectivity for ME
7 | CO[C@@H](C(=O)N1Cc2n[nH]c(NC(=O)c3ccc(N4CCN(C)CC4)cc3)c2C1)c1ccccc1 [danusertib] | much stronger activity on 3D BME at significantly lower doses | > 100 nM | 0.1 | 
8 | Cn1cc(-c2ccc(S(=O)(=O)n3ccc(/C=C/C(=O)Nc4ccccc4N)c3)cc2)cn1 [domatinostat] | much stronger activity on 3D BME at similar doses; also recorded: more active in 3D than in 2D | ≥ 200 nM | 0.1 | earlier (2 days on, 4 days off) vs later (2 days off, 4 days on) treatment (MG63.3 OS cell line [1]; FIG. 68, rapamycin 2-16 nM experiment): slightly more inhibition than later treatment; 3D activity and selectivity for ME in a screen of 10 HDAC inhibitors (MG63.3 OS cell line [1]; MG63.3): highest 3D activity and selectivity for ME; efficacy of domatinostat alone treated for 1 day (MG63.3 OS cell line [1]; domatinostat 100-200 nM, 1 day on, 5 days off): little to no efficacy; growth inhibition in the 3D BME assay (MG63.3 OS cell line [1]; [5]): 20-50%; inhibition of 3D growth relative to vehicle, two schedules (MG63.3 OS cell line [1]; domatinostat 200-800 nM, Days 3-6 (2 days off, 4 days on) or Days 1-2 (2 days on, 4 days off), P<0.005): significantly inhibition relative to vehicle for both treatment schedules; earlier (2 days on, 4 days off) vs later (2 days off, 4 days on) treatment (MG63.3 OS cell line [1]; domatinostat 200-800 nM): slightly more inhibition than later treatment; re-treatment on Day 3 vs treated once, inhibition of 3D growth (MG63.3 OS cell line [1]; rapamycin 1 nM, domatinostat 100 & 150 nM, combination, P<0.01 for all except 100 nM domatinostat alone): significantly increased inhibition relative to the conditions only treated with drug once; inhibition in 2D at these doses (MG63.3 OS cell line [2]; [5]): no statistically significant inhibition
9 | CO[C@H]1C[C@@H]2CC[C@@H](C)[C@@](O)(O2)C(=O)C(=O)N2CCCC[C@H]2C(=O)O[C@H]([C@H](C)C[C@@H]2CC[C@@H](OCCO)[C@H](OC)C2)CC(=O)[C@H](C)/C=C(\C)[C@@H](O)[C@@H](OC)C(=O)[C@H](C)C[C@H](C)/C=C/C=C/C=C/1C [everolimus] | much stronger activity on 3D BME at similar doses |  | 0.01 | cytotoxicity on 2D growth (MG63.3 OS cell line [2]): cytotoxicity across all doses tested
10 | COc1ccc(-c2nc(N3CCOCC3)c3sc(CN(C)c4ncc(C(=O)NO)cn4)cc3n2)cn1 [fimepinostat] |  | ≥ 1 nM |  | 3D activity and selectivity for ME in a screen of 10 HDAC inhibitors (MG63.3 OS cell line [1]; MG63.3): 3D activity and selectivity for ME; lowest dose leading to complete inhibition of 3D growth (MG63.3 OS cell line [1]; [6]): 5 nM
11 | CCN(CC)Cc1ccc2cc(COC(=O)Nc3ccc(C(=O)NO)cc3)ccc2c1 [givinostat] | more active in 3D than in 2D | ≥ 600 nM | 0.3 | 3D activity and selectivity for ME in a screen of 10 HDAC inhibitors (MG63.3 OS cell line [1]; MG63.3): highest 3D activity and selectivity for ME; 3D growth inhibition and selectivity for ME at selected dose (MG63.3 OS cell line [1]): significant 3D growth inhibition and selectivity for ME
12 | O=C(CC1NCCCC1O)Cn1cnc2cc(Br)c(Cl)cc2c1=O (stereo not shown) [halofuginone] |  | ≥ 12.5 nM |  | lowest dose leading to >25% inhibition of 3D growth (MG63.3 OS cell line [1]; [6]): 3 nM
13 | CC(C)[C@]12O[C@H]1[C@@H]1O[C@]13[C@]1(O[C@H]1C[C@H]1C4=C(CC[C@@]13C)C(=O)OC4)[C@@H]2OCOP(=O)(O)O [minnelide] |  |  |  | lowest dose leading to complete inhibition of 3D growth (MG63.3 OS cell line [1]; [6]): 4 nM; doses exhibiting cytotoxicity on 2D growth (MG63.3 OS cell line [2]; MG63.3, MTT, replicates=3): ≥ 0.781 nM
14 | CO[C@@]12[C@H](COC(N)=O)C3=C(C(=O)C(C)=C(N)C3=O)N1C[C@@H]1N[C@@H]12 [mitomycin C] | much stronger activity on 3D BME at significantly lower doses; also recorded: more active in 3D than in 2D |  |  | IC50 (MG63.3 OS cell line [1]; MG63.3): 0.05 µM; minimal effective concentration (MG63.3 OS cell line [1]; [3]): 0.0125 µM; IC50 (MG63.3 OS cell line [2]; read-out: 2D IC50, MG63.3, MTT 72 h): 1 µM and ~1 µM
15 | CC1(C)CCC(c2ccc(Cl)cc2)=C(CN2CCN(c3ccc(C(=O)NS(=O)(=O)c4ccc(N[C@H](CCN5CCOCC5)CSc5ccccc5)c(S(=O)(=O)C(F)(F)F)c4)cc3)CC2)C1 [navitoclax] | much stronger activity on 3D BME at similar doses; also recorded: more active in 3D than in 2D | ≥ 1000 nM | 0.5 | growth inhibition in the 3D BME assay (MG63.3 OS cell line [1]; navitoclax 500-2000 nM, MG63.3): 50-60%; inhibition in 2D (MG63.3 OS cell line [2]; navitoclax 500-2000 nM, MG63.3): 0-25%
16 | Cc1[nH]c2ccccc2c1CCNCc1ccc(/C=C/C(=O)NO)cc1 [panobinostat] |  | ≥ 80 nM | 0.04 | 
17 | NS(=O)(=O)OC[C@@H]1C[C@@H](n2ccc3c(N[C@H]4CCc5ccccc54)ncnc32)C[C@@H]1O [pevonedistat] | much stronger activity on 3D BME at significantly lower doses; also recorded: more active in 3D than in 2D | > 10 nM |  | inhibition at 0.025 µM (MG63.3 OS cell line [1]; Homo sapiens, MG-63.3, pevonedistat 25 nM, MG63.3): 47%; inhibition at 0.025 µM (MG63.3 OS cell line [2]; Homo sapiens, MG-63.3, read-out: inhibition in 2D): 20%
18 | O=C(NC[C@H](O)CO)c1ccncc1Nc1ccc(I)cc1F [pimasertib] |  | above 1 nM |  | lowest dose leading to complete inhibition of 3D growth (MG63.3 OS cell line [1]; [6]): 100 nM
19 | Cn1cc(CNCC2CCN(c3ncc(C(=O)NO)cn3)CC2)c2ccccc21 [quisinostat] | more active in 3D than in 2D | ≥ 80 nM | 0.01 | 3D activity and selectivity for ME in a screen of 10 HDAC inhibitors (MG63.3 OS cell line [1]; MG63.3): highest 3D activity and selectivity for ME; 3D growth inhibition and selectivity for ME at selected dose (MG63.3 OS cell line [1]): significant 3D growth inhibition and selectivity for ME
20 | C=CCNc1c(O)cc2c(O)c1C[C@@H](C)C[C@H](OC)[C@H](O)[C@@H](C)/C=C(\C)[C@H](OC(N)=O)[C@@H](OC)/C=C\C=C(/C)C(=O)N2 [retaspimycin] |  |  | 0.2 | doses exhibiting cytotoxicity on 2D growth (MG63.3 OS cell line [2]; MG63.3, MTT, replicates=3): > 400 nM
